From patent EP0403963A2, “Anthracycline derivatives, process for their preparation and their use as medicaments” (priority 1989, dated 1990) come the findings set out here.

≈ marks a conversion by molar mass, not a printed value. Read-outs that look alike come from different tables or passages of the source.

Data set [1] is described as follows: Acute toxicity, intravenous injection. To be noted: mouse, in vivo, iv; i.v. on day 0, 3 and 6; survivors counted on day 20; 2 mice per dose; read-out: akute Toxizität LD50. The format is in vivo, Mäusen. As for the experimental part:
(§1) Zur Ermittlung der akuten Toxizität wurden BDFi-Mäusen am Tag 0, Tag 3 und Tag 6 unterschiedliche Dosen der Testsubstanz, gelöst in 0,4 ml physiologischer Kochsalzlösung, intravenös injiziert. Kontrollgruppen erhielten lediglich 0,4 ml physiologischer Kochsalzlösung. Pro Konzentration der Testsubstanz wurden 2 Mäuse verwendet. Am Tag 20 wurde die Zahl der überlebenden Mäuse und daraus die LD50 ermittelt. Die Toxizität der hier beschriebenen Verbindungen im Vergleich zu Adriamycin ist in Tabelle 1 zusammengefaßt.

A further data set relates to L1210 Leukämiezellen. As to the kind of experiment: Proliferation test (MTT), continuous incubation. The format is cell-based, Maus. Particulars: for IC50: Mus musculus, read-out: Zytotoxizität (Dauerinkubation) IC50. The method, then: Kontrollen bestehen aus Zellen, die lediglich mit frischem Medium inkubiert werden. Alle Bestimmungen werden als 4-fache Bestimmung durchgeführt. Nach 65 Stunden werden 50 ul MTT (3-(4,5-Dimethylthiazol-2-yl)-2,5-diphenyl-tetrazoliumbromid, 2,5 mg/mi in PBS) zugegeben. MTT wird durch lebende Zellen zu einem […], unlöslichen Formazan-Farbstoff reduziert. Nach einer weiteren 7-stündigen Inkubation wird das überstehende Medium vorsichtig abgesaugt. Der Formazan-Farbstoff wird durch Zugabe von jeweils 100 ul DMSO in die Vertiefungen der Mikrotiterplatte und vorsichtiges Schütteln gelöst. Die Extinktion der jeweiligen Lösung wird mit Hilfe eines Multiscan Photometers 340 CC, Fa. Flow, bei 492 nm gemessen.

The nature of data set [2]: Qualitative solubility of the isolated substance. The format is physicochemical. To be noted: solvents: Methanol, Ethylacetat, Chloroform, Wasser, Hexan.
For the next data set, the system named is BDFi-Mäusen. As to the kind of experiment: Acute toxicity, intravenous injection. The format is in vivo. To be noted: i.v. on day 0, 3 and 6; survivors counted on day 20; 2 mice per dose; 28800 min. As for the experimental part: as §1
Setting [3] is: L1210 cells, 72 h incubation, MTT readout at 492 nm.

The term LD50 denotes the dose at which mortality reaches 50%. Broadly, the IC50 is the midpoint of a concentration-inhibition curve. On to `COc1cccc2c1C(=O)c1c(O)c3c(c(O)c1C2=O)C[C@@](O)(C(=O)CO)C[C@@H]3O[C@H]1C[C@H](N)[C@H](O)[C@H](C)O1` [Adriamycin, reference compound], for which the LD50 at 480 h in data set [1] was 10 mg/kg. In addition, in the data set with L1210 Leukämiezellen (L1210, 72 h), the half-inhibitory concentration (IC50) fell in the range of 0.02 to 0.03 µg/mL (≈ 0.0368 to 0.0552 µM).
In the case of Cytorhodin Z, in data set [2], the Löslichkeit entry is “leicht löslich in Methanol, Ethylacetat, Chloroform, unlöslich in Wasser und Hexan”. The “akute Toxizität LD50” value in the data set on BDFi-Mäusen was in the range of 10 to 25 mg/kg. The “Zytotoxizität (Dauerinkubation) IC50” value in the data set on L1210 Leukämiezellen (setting [3]) was 0,33 µg/ml.
Take `CC[C@@]1(O[C@H]2C[C@H](N(C)C)[C@H](O)[C@H](C)O2)CCc2c(O)c3c(c(O)c2[C@H]1O[C@H]1C[C@H](N(C)C)[C@H](O)[C@H](C)O1)C(=O)c1cccc(O)c1C3=O` [9-0,10-0-Bis (α-L-rhodosaminyl)-γ-rhodomycinon]: the Löslichkeit result in data set [2] was “leicht löslich in Methanol, Ethylacetat, Chloroform, unlöslich in Wasser und Hexan”. Also, in data set [1], the 50% lethal dose (LD50) at 480 h was 25 to 50 mg/kg. Further, the 50% inhibitory concentration (IC50) in the data set with L1210 Leukämiezellen (setting [3]) was 0.35 µg/mL (≈ 0.511 µM).
